Target: T1, human GPR84 receptor (Homo sapiens, UniProt Q9NQS5)
T1 construct: frozen aliquots prepared by acCELLerate; host or cells: CHO-K1
Assay: cAMP HTRF assay for identification of cellular GPR84 antagonists
Type: cell-based
Settings: CHO-K1 cells stably expressing human GPR84; Forskolin plus agonist 6-OAU; cAMP HTRF readout; average or median values
Source text: cAMP HTRF® Assay for Identification of Cellular GPR84 Antagonists
By using a Homogenous Time-Resolved Fluorescence (HTRF®) based assay (#62AM5PEJ, Cisbio, Condolet, France) the inhibition of the Gi-coupled GPR84 receptor can be detected. CHO-K1 cells stably expressing human GPR84 receptor (purchased from DiscoveRx, now Eurofins) were used and treated with Forskolin (F6886, Sigma, Germany) to stimulate membrane adenylyl cyclases and thereby unspecific cAMP formation. Activation of the Gi-coupled GPR84 by a natural or small molecule agonist (e.g. 6-n-octyl aminouracile, inhouse) results in inhibition of cellular cAMP formation which can be released again by antagonists to this receptor. Detection and quantification of cellular cAMP levels in this HTRF assay is achieved by interaction between a fluorescent cAMP tracer (cAMP-d2) and an Eu-cryptate labelled anti-cAMP antibody. Following excitation at 337 nm this pairing allows for the generation of a fluorescence resonance energy transfer (FRET) between the partners and results in FRET induced emissions at 665 nm and 620 nm, the latter representing background signal by Eu-cryptate labelled anti-cAMP antibody. Maximal signal is obtained in the absence of any cellular cAMP (no competition for the binding of the tracer to the antibody). Given the combination of the Gi coupling properties of GPR84 and the competitive nature of the detection system agonist treatment should result in an increase in the HTRF signal due to lowered cAMP levels. Any signal decrease in the presence of Forskolin, agonist and compound are indicative of antagonist mediated abrogation of GPR84 signalling.
For the assay, frozen aliquots of CHO-K1 cells expressing hGPR84 (prepared by acCELLerate, Hamburg, Germany) were thawed and a cell suspension (1.67E+06 cells/mL) in assay media (Ham's F12 Nutrient Mix, Thermo Fisher Scientific, Waltham, USA; 5% fetal calf serum, Biomol, Hamburg, Germany) containing cAMP-d2 (dilution 1:20, supplied with the kit #62AM5PEJ, Cisbio, Condolet, France) was prepared. After recovery of cells for 20 minutes at 37° C., 3 μL/well cell suspension including cAMP-d2 were added to a pre-dispensed assay plate (Greiner Bio-One, Kremsmuenster, Austria) containing 50 nl/well test compound in 100% DMSO or 100% DMSO as control. This was followed by a 30 minute incubation step at room temperature. The stimulation time was started by addition of 2 μL/well assay media containing 2.5×EC80 agonist 6-OAU and 2.5×EC90 Forskolin (negative control: 2.5×EC90 Forskolin in assay media) and was continued for 30 minutes at room temperature. The reaction was stopped by addition of 3 μL/well lysis buffer containing cAMP Eu-Cryptate antibody (dilution 1:20) (both supplied with the kit #62AM5PEJ, Cisbio, Condolet, France). To enable complete lysis, plates were incubated for 60 minutes at room temperature before measurement in an HTRF reader, e.g. a PHERAstar (BMG Labtech, Ortenberg, Germany).
From the fluorescence emissions at 665 nm (FRET) and at 620 nm (background signal of Eu-cryptate) the ratio (emission at 665 nm divided by emission at 620 nm×10000) was calculated and the data were normalized (reaction without test compound, only 100% DMSO=0% inhibition; all other assay components except agonist=100% inhibition). For dose response testing on the same microtiter plate, compounds were tested at 11 different concentrations in the range of 20 μM to 0.07 nM (20 μM, 5.7 μM, 1.6 μM, 0.47 μM, 0.13 μM, 38 nM, 11 nM, 3.1 nM, 0.89 nM, 0.25 and 0.07 nM; dilution series prepared before the assay at the level of the 100-fold conc. stock solutions by serial 1:3.5 dilutions in 100% DMSO) in duplicate values for each concentration. IC50 values were calculated by 4-parameter fitting using a commercial software package (Genedata Screener, Basel, Switzerland).
Examples were tested in selected biological assays one or more times. […]

T1 sequence (Q9NQS5 whole entry): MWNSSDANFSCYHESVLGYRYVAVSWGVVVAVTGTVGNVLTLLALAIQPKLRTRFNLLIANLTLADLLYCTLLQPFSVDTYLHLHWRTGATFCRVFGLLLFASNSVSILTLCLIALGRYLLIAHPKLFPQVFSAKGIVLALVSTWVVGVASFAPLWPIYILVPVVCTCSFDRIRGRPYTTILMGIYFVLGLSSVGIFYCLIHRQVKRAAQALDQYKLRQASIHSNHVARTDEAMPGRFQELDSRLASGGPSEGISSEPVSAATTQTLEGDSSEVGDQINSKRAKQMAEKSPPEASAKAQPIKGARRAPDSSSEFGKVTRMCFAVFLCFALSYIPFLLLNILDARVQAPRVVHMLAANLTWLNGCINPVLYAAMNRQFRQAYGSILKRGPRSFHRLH

| SMILES | IC50 [nM] |
| --- | --- |
| COCCNC(=O)CNC(=O)c1oc2c(c1C)-c1nn(Cc3ccc(Cl)cc3)cc1CC2 [Example 32, 2-[(4-chlorophenyl)methyl]-N-{2-[(2-methoxyethyl)amino]-2-oxoethyl}-8-methyl-4,5-dihydro-2H-furo[2,3-g]indazole-7-carboxamide] | 2460 |
| Cc1c(C(=O)NCC(=O)NC2CC2)oc2c1-c1nn(Cc3ccc(Cl)cc3)cc1CC2 [Example 33, 2-[(4-chlorophenyl)methyl]-N-[2-(cyclopropylamino)-2-oxoethyl]-8-methyl-4,5-dihydro-2H-furo[2,3-g]indazole-7-carboxamide] | 3310 |
| Cc1c(C(=O)NCC(=O)N2CCCC2)oc2c1-c1nn(Cc3ccc(Cl)cc3)cc1CC2 [Example 34, 2-[(4-chlorophenyl)methyl]-8-methyl-N-[2-oxo-2-(pyrrolidin-1-yl)ethyl]-4,5-dihydro-2H-furo[2,3-g]indazole-7-carboxamide] | 1140 |
| Cc1c(C(=O)NCC(=O)N2CCOCC2)oc2c1-c1nn(Cc3ccc(Cl)cc3)cc1CC2 [Example 35, 2-[(4-chlorophenyl)methyl]-8-methyl-N-[2-(morpholin-4-yl)-2-oxoethyl]-4,5-dihydro-2H-furo[2,3-g]indazole-7-carboxamide] | 3000 |
| Cc1c(C(=O)NCC(=O)N(C)C)oc2c1-c1nn(Cc3ccc(Cl)cc3)cc1CC2 [Example 36, 2-[(4-chlorophenyl)methyl]-N-[2-(dimethylamino)-2-oxoethyl]-8-methyl-4,5-dihydro-2H-furo[2,3-g]indazole-7-carboxamide] | 1190 |
| Cc1c(C(=O)NCc2ccncc2)oc2c1-c1nn(Cc3ccc(Cl)cc3)cc1CC2 [Example 45, 2-[(4-chlorophenyl)methyl]-8-methyl-N-[(pyridin-4-yl)methyl]-4,5-dihydro-2H-furo[2,3-g]indazole-7-carboxamide] | 1430 |
| Cc1c(C(=O)NCc2ccnn2C)oc2c1-c1nn(Cc3ccc(Cl)cc3)cc1CC2 [Example 46, 2-[(4-chlorophenyl)methyl]-8-methyl-N-[(1-methyl-1H-pyrazol-5-yl)methyl]-4,5-dihydro-2H-furo[2,3-g]indazole-7-carboxamide] | 1650 |
| Cc1c(C(=O)NCc2cnn(C)c2)oc2c1-c1nn(Cc3ccc(Cl)cc3)cc1CC2 [Example 47, 2-[(4-chlorophenyl)methyl]-8-methyl-N-[(1-methyl-1H-pyrazol-4-yl)methyl]-4,5-dihydro-2H-furo[2,3-g]indazole-7-carboxamide] | 1870 |
| Cc1c(C(=O)NCC(N)=O)oc2c1-c1nn(Cc3ccc(Cl)cc3)cc1CC2 [Example 48, N-(2-amino-2-oxoethyl)-2-[(4-chlorophenyl)methyl]-8-methyl-4,5-dihydro-2H-furo[2,3-g]indazole-7-carboxamide] | 2130 |
| Cc1c(C(=O)N2CC(Cc3ccccc3)C2)oc2c1-c1nn(Cc3ccc(Cl)cc3)cc1CC2 [Example 49, (3-benzylazetidin-1-yl){2-[(4-chlorophenyl)methyl]-8-methyl-4,5-dihydro-2H-furo[2,3-g]indazol-7-yl}methanone] | 2590 |
| Cc1c(C(=O)NCc2cnn3ccccc23)oc2c1-c1nn(Cc3ccc(Cl)cc3)cc1CC2 [Example 50, 2-[(4-chlorophenyl)methyl]-8-methyl-N-[(pyrazolo[1,5-a]pyridin-3-yl)methyl]-4,5-dihydro-2H-furo[2,3-g]indazole-7-carboxamide] | 2690 |
| Cc1c(C(=O)NCC2CC2)oc2c1-c1nn(Cc3ccc(Cl)cc3)cc1CC2 [Example 51, 2-[(4-chlorophenyl)methyl]-N-(cyclopropylmethyl)-8-methyl-4,5-dihydro-2H-furo[2,3-g]indazole-7-carboxamide] | 2720 |
| Cc1c(C(=O)NCC2CCOCC2)oc2c1-c1nn(Cc3ccc(Cl)cc3)cc1CC2 [Example 52, 2-[(4-chlorophenyl)methyl]-8-methyl-N-[(oxan-4-yl)methyl]-4,5-dihydro-2H-furo[2,3-g]indazole-7-carboxamide] | 2960 |
| Cc1c(C(=O)NCc2nccn2C)oc2c1-c1nn(Cc3ccc(Cl)cc3)cc1CC2 [Example 53, 2-[(4-chlorophenyl)methyl]-8-methyl-N-[(1-methyl-1H-imidazol-2-yl)methyl]-4,5-dihydro-2H-furo[2,3-g]indazole-7-carboxamide] | 3040 |
| Cc1c(C(=O)NCc2cncn2C)oc2c1-c1nn(Cc3ccc(Cl)cc3)cc1CC2 [Example 54, 2-[(4-chlorophenyl)methyl]-8-methyl-N-[(1-methyl-1H-imidazol-5-yl)methyl]-4,5-dihydro-2H-furo[2,3-g]indazole-7-carboxamide] | 3390 |
| Cc1c(C(=O)NCCN2CCOCC2)oc2c1-c1nn(Cc3ccc(Cl)cc3)cc1CC2 [Example 55, 2-[(4-chlorophenyl)methyl]-8-methyl-N-[2-(morpholin-4-yl)ethyl]-4,5-dihydro-2H-furo[2,3-g]indazole-7-carboxamide] | 4180 |
| Cc1c(C(=O)NCCC(N)=O)oc2c1-c1nn(Cc3ccc(Cl)cc3)cc1CC2 [Example 56, N-(3-amino-3-oxopropyl)-2-[(4-chlorophenyl)methyl]-8-methyl-4,5-dihydro-2H-furo[2,3-g]indazole-7-carboxamide] | 4880 |

These reach a lower IC50. Values come first.

| IC50 [nM] | SMILES |
| --- | --- |
| 180 | Cc1c(C(=O)NCc2ccn(C)n2)oc2c1-c1nn(Cc3ccc(Cl)cc3)cc1CC2 [Example 37, 2-[(4-chlorophenyl)methyl]-8-methyl-N-[(1-methyl-1H-pyrazol-3-yl)methyl]-4,5-dihydro-2H-furo[2,3-g]indazole-7-carboxamide] |
| 210 | Cc1c(C(=O)NCc2nccs2)oc2c1-c1nn(Cc3ccc(Cl)cc3)cc1CC2 [Example 38, 2-[(4-chlorophenyl)methyl]-8-methyl-N-[(1,3-thiazol-2-yl)methyl]-4,5-dihydro-2H-furo[2,3-g]indazole-7-carboxamide] |
| 280 | Cc1c(C(=O)NCc2ccccn2)oc2c1-c1nn(Cc3ccc(Cl)cc3)cc1CC2 [Example 39, 2-[(4-chlorophenyl)methyl]-8-methyl-N-[(pyridin-2-yl)methyl]-4,5-dihydro-2H-furo[2,3-g]indazole-7-carboxamide] |
| 410 | COCCNC(=O)c1oc2c(c1C)-c1nn(Cc3ccc(Cl)cc3)cc1CC2 [Example 40, 2-[(4-chlorophenyl)methyl]-N-(2-methoxyethyl)-8-methyl-4,5-dihydro-2H-furo[2,3-g]indazole-7-carboxamide] |
| 520 | Cc1c(C(=O)NCc2cc[nH]n2)oc2c1-c1nn(Cc3ccc(Cl)cc3)cc1CC2 [Example 41, 2-[(4-chlorophenyl)methyl]-8-methyl-N-[(1H-pyrazol-3-yl)methyl]-4,5-dihydro-2H-furo[2,3-g]indazole-7-carboxamide] |
| 720 | Cc1c(C(=O)NCc2ccc(C(N)=O)cc2)oc2c1-c1nn(Cc3ccc(Cl)cc3)cc1CC2 [Example 42, N-[(4-carbamoylphenyl)methyl]-2-[(4-chlorophenyl)methyl]-8-methyl-4,5-dihydro-2H-furo[2,3-g]indazole-7-carboxamide] |
| 800 | CC(=O)Nc1ccc(CNC(=O)c2oc3c(c2C)-c2nn(Cc4ccc(Cl)cc4)cc2CC3)cc1 [Example 43, N-[(4-acetamidophenyl)methyl]-2-[(4-chlorophenyl)methyl]-8-methyl-4,5-dihydro-2H-furo[2,3-g]indazole-7-carboxamide] |
| 890 | Cc1c(C(=O)NCc2cccn2C)oc2c1-c1nn(Cc3ccc(Cl)cc3)cc1CC2 [Example 44, 2-[(4-chlorophenyl)methyl]-8-methyl-N-[(1-methyl-1H-pyrrol-2-yl)methyl]-4,5-dihydro-2H-furo[2,3-g]indazole-7-carboxamide] |
